Measured values published in BindingDB's records for doi:10.1016/j.bmcl.2006.12.028 (Sapienza University of Rome, 2007).

Legend:
Histone deacetylase 2b = target: T1, Histone deacetylase 2b (Zea mays, UniProt Q94F81); assay: Inhibition of maize HD2 (mean)
T1 sequence (Q94F81 whole entry): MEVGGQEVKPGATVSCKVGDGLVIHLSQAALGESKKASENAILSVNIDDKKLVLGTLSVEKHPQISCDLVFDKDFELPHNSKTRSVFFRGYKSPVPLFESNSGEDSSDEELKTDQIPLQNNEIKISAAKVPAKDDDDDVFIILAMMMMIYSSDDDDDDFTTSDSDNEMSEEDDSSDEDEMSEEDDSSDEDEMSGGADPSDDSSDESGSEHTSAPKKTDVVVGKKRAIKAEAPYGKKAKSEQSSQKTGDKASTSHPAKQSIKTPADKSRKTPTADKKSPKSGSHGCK

Histone deacetylase 1 = Histone deacetylase 1 (Mus musculus, UniProt O09106); assay: Inhibition of mouse HDAC1 (mean)
Chain of Histone deacetylase 1 (O09106 whole entry): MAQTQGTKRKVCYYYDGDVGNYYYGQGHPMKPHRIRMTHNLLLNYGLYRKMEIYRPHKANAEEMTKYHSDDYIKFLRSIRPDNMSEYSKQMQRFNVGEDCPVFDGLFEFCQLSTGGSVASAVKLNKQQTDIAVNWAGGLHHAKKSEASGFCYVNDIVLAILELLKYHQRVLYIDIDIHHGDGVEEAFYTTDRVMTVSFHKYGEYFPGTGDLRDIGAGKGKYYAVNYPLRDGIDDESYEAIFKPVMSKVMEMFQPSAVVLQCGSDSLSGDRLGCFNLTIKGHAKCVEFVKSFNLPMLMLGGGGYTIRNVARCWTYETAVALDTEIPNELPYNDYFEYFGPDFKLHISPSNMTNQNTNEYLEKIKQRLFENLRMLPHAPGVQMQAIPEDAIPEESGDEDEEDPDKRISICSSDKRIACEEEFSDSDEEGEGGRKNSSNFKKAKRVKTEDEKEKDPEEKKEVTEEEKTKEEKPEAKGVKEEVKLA

Histone deacetylase = Histone deacetylase (Zea mays, UniProt Q9ZTP8); assay: Inhibition of maize HD1-B (mean)
Chain of Histone deacetylase (Q9ZTP8 whole entry): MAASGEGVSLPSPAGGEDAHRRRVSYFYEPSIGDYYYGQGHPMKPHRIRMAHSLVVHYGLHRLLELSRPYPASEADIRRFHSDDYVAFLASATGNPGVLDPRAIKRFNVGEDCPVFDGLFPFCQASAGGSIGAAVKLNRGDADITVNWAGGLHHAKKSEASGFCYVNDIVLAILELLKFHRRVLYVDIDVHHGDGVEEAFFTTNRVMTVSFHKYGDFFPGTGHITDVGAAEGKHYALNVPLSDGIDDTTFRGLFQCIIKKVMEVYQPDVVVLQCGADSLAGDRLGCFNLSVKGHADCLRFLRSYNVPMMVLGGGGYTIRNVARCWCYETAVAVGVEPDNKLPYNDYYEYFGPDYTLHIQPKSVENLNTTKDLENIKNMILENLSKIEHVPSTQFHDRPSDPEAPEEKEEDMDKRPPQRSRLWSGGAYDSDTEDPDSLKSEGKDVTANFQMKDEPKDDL

[1] = target: Histone deacetylase HD1-A (Zea mays); assay: Inhibition of maize HD1-A (mean)

IC50 (Histone deacetylase 2b)	IC50 (Histone deacetylase 1)	IC50 (Histone deacetylase)	IC50 [1]	SMILES
17 nM	36.7 nM	11.3 nM		O=C(CCCCSc1nc(-c2cccc(Cl)c2)cc(=O)[nH]1)NO
17 nM	50.9 nM	11.3 nM	2.83 nM	O=C(CCCCSc1nc(-c2ccc(Cl)cc2)cc(=O)[nH]1)NO
49.2 nM				O=C(CCCCCCC(=O)Nc1ccccc1)NO [Zolinza]
